In test [1] the target is T1, AKT1 (Homo sapiens, UniProt P31749).
T1 construct: purchased SignalChem
The experiment in a line: AKT Kinase Assay (IMAP fluorescent polarisation) vs AKT1. The test is classed as biochemical. The conditions noted are these: activated AKT1, FAM Crosstide substrate. In outline:
(§1)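 Each activated AKT isoform, at a pre-determined linear-range concentration, was pre-incubated 45 min at room temperature with compound in a fourteen-point half-log series. ATP plus 5′FAM-Crosstide then reacted 1 h; IMAP binding reagent stopped it (1 h). Fluorescence polarisation (ex 485/em 528 nm) versus vehicle gave IC50 by non-linear regression.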

Test [2] addresses T2, AKT2 (Homo sapiens, UniProt P31751).
T2 construct: purchased SignalChem
Put plainly: AKT Kinase Assay (IMAP fluorescent polarisation) vs AKT2. The test is classed as biochemical. The conditions noted are these: activated AKT2, FAM Crosstide substrate. In outline: as §1

Test [3] has as its target T3, AKT3 (Homo sapiens, UniProt Q9Y243).
T3 construct: purchased SignalChem
The experiment in a line: AKT Kinase Assay (IMAP fluorescent polarisation) vs AKT3. The test is classed as biochemical. Conditions: activated AKT3, FAM Crosstide substrate. The essentials: as §1

Test [4] has as its system PC3 and/or LnCaP cell lines. Put plainly: In vitro cell proliferation assay (Cell Titre Glo). The conditions noted are these: Homo sapiens, 72 hours, read-out: inhibition of proliferation IC50. It counts as cell-based. As to the method: Testing of the compounds was also performed using in vitro cell proliferation assays:
Cell Titre Glo (Promega) is a highly sensitive homogeneous reagent used to determine the viability of cells. The reagent uses a stable form of luciferase to measure ATP as an output of viability. The luminescent values generated in the assay are directly proportional to the number of viable cells in your assay.
The following materials were used: White, clear bottomed 96 well assay plates (Costar); Cell titre Glo reagents; LnCaP (ECACC) cells grown in RPMI medium (Invitrogen) supplemented with 10 mM HEPES (Invitrogen), 1 mM Sodium pyruvate (Invitrogen), 2 mM L-Glutamine (Invitrogen) and 10% Foetal calf serum (Invitrogen); PC3 (ECACC) cells grown in RPMI medium supplemented with 10% Foetal calf serum (Invitrogen); Trypsin (Invitrogen); PBS (Invitrogen); Biotek Synergy 4 Hybrid Plate reader; 96 well plate shaker (Stuart SSL5); Eppendorf 5414 desk-top centrifuge; Beckman Coulter cell counter Z1 single threshold system.
Prostate cell lines, PC3 and LnCaP, were washed, detached and re-suspended in their respective fresh media. The cells were pelleted by centrifugation (Eppendorf 5414) and spent supernatant discarded. The cells were re-suspended by vortex mixing, counted and seeded into clear bottom white 96 well plates at a density of 5000 cells per well. The cells were incubated (Sanyo) overnight at 37° C. ([…]/5% CO2), and next day treated with increasing concentrations of test compound formulated in fresh medium. The plates were returned to the incubator for 72 hours.
Cell Titre Glo (Promega) was prepared by mixing the supplied reagents as per manufacturer's instructions and left to stand at room temperature. The cell plates were removed from the incubator and 80 μl of the Cell Titre Glo solution added to each well. The plate was shaken for five minutes to ensure homogenous mixing of reagents and cells, then left to stand for ten minutes at room temperature.
The cell viability post compound treatment was determined by the luminescent intensity emitted from the drug treated wells in the plate. In brief, the assay plate was placed in the Biotex Synergy 4 Hybrid plate reader and the luminescence read in each well. The compound treated wells were compared to vehicle treated wells and the % inhibition of cell viability calculated.
The data was analysed using GraphPad Prism, with IC50 values generated using non-linear regression of the data set.

Molecules are shown by their SMILES. Where a name gives a salt, the structure may show the parent alone. Bounds are passed on as bounds.

T1 sequence (P31749 whole entry): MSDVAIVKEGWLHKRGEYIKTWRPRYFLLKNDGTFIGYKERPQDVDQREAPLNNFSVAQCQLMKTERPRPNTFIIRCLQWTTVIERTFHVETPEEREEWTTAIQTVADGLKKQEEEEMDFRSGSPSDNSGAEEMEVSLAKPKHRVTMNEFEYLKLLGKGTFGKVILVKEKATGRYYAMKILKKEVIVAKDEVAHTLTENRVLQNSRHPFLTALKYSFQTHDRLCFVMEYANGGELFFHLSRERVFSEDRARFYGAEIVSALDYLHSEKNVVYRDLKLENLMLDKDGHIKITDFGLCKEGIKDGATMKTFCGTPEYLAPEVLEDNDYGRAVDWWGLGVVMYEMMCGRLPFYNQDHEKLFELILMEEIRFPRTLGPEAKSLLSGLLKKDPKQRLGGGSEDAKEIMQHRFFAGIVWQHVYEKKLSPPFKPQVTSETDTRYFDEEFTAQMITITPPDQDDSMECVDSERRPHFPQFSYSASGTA
T2 sequence (P31751 whole entry): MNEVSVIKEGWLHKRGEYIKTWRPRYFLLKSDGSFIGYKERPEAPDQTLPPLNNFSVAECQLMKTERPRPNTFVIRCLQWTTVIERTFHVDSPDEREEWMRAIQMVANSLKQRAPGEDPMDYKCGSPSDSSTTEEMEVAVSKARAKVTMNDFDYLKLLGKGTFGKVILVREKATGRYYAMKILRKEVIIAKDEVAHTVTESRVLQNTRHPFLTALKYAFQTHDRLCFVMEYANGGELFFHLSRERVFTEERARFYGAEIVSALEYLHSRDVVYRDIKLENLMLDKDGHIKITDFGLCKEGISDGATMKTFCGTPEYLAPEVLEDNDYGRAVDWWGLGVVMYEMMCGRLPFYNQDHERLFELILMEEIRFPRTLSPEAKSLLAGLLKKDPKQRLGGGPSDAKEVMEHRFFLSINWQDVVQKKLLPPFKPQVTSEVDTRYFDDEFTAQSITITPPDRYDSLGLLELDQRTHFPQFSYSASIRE
T3 sequence (Q9Y243 whole entry): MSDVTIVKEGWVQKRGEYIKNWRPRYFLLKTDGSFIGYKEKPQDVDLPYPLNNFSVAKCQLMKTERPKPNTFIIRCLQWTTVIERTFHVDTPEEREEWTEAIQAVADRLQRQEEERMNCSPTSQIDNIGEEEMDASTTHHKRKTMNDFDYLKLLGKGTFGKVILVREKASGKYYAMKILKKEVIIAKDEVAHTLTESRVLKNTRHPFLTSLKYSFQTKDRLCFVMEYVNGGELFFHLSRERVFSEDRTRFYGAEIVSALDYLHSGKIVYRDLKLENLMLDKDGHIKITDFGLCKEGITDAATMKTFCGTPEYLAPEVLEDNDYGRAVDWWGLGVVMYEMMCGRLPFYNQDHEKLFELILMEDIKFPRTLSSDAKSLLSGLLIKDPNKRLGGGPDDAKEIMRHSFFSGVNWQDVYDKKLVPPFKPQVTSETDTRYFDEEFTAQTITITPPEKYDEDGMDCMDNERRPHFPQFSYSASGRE

For `NC1(c2ccc(-c3oc4ccncc4c3-c3ccccc3)cc2)CCC1` [Example 1, 1-(4-(3-phenylfuro[3,2-c]pyridin-2-yl)phenyl)cyclobutanamine], the IC50 was 1 to 10 µM in test [1], 1 to 10 µM in test [2], 1 to 10 µM in test [3] and below 10 µM in test [4].
Regarding `NC1(c2ccc(-c3oc4nccnc4c3-c3ccccc3)cc2)CCC1` [Example 10, 1-(4-(7-Phenylfuro[2,3-b]pyrazin-6-yl)phenyl)cyclobutanamine.HCl], the IC50 in test [1] was 1 to 10 µM; in test [2] it was 1 to 10 µM; in test [3] it was above 10 µM; in test [4] it was below 10 µM.
With `NC1(c2ccc(-c3oc4nc[nH]c(=O)c4c3-c3ccccc3)cc2)CCC1` [Example 12, 6-(4-(1-Aminocyclobutyl)phenyl)-5-phenylfuro[2,3-d]pyrimidin-4(3H)-one], the IC50 in test [1] was 1 to 10 µM; in test [2] it was 1 to 10 µM; in test [3] it was 1 to 10 µM; in test [4], below 10 µM.
For the molecule `CSc1ncc2c(-c3ccccc3)c(-c3ccc(C4(N)CCC4)cc3)oc2n1` [Example 24, 1-(4-(2-(Methylthio)-5-phenylfuro[2,3-d]pyrimidin-6-yl)phenyl)cyclobutanamine], the IC50 was 1 to 10 µM in test [1], 0.1 to 1 µM in test [2], above 10 µM in test [3] and below 10 µM in test [4].
On to `CNc1nc(OC)c2c(-c3ccccc3)c(-c3ccc(C4(N)CCC4)cc3)oc2n1` [Example 32, 6-(4-(1-Aminocyclobutyl)phenyl)-4-methoxy-N-methyl-5-phenylfuro[2,3-d]pyrimidin-2-amine], for which the IC50 in test [1] was at most 0.1 µM; in test [2] it was 0.1 to 1 µM; in test [3] it was above 10 µM; in test [4], below 10 µM.
On the same counts, the results for `COc1nc(OCCO)nc2oc(-c3ccc(C4(N)CCC4)cc3)c(-c3ccccc3)c12` [Example 36, 2-((6-(4-(1-Aminocyclobutyl)phenyl)-4-methoxy-5-phenylfuro[2,3-d]pyrimidin-2-yl)oxy)ethanol] are at most 0.1 µM, 0.1 to 1 µM, above 10 µM and below 10 µM.
On the same counts, the results for `COc1nc(N2CCNCC2)nc2oc(-c3ccc(C4(N)CCC4)cc3)c(-c3ccccc3)c12` [Example 37, 1-(4-(4-Methoxy-5-phenyl-2-(piperazin-1-yl)furo[2,3-d]pyrimidin-6-yl)phenyl)cyclobutanamine] are 0.1 to 1 µM, 0.1 to 1 µM, 1 to 10 µM and below 10 µM.
On to `NC1(c2ccc(-c3oc4ncc(-c5cncnc5)nc4c3-c3ccccc3)cc2)CCC1` [Example 140, 1-(4-(7-Phenyl-2-(pyrimidin-5-yl)furo[2,3-b]pyrazin-6-yl)phenyl)cyclobutanamine], for which the IC50 in test [1] is 1 to 10 µM; in test [2], 0.1 to 1 µM; in test [3] it was above 10 µM.
For the molecule `NC1(c2ccc(-c3oc4ncc(-c5ccccn5)nc4c3-c3ccccc3)cc2)CCC1` [Example 141, 1-(4-(7-Phenyl-2-(pyridin-2-yl)furo[2,3-b]pyrazin-6-yl)phenyl)cyclobutanamine], the IC50 was 1 to 10 µM in test [1], 1 to 10 µM in test [2] and above 10 µM in test [3].
Turning to `NC1(c2ccc(-c3oc4ncc(COCc5ccccc5)nc4c3-c3ccccc3)cc2)CCC1` [Example 142, 1-(4-(2-(Benzyloxymethyl)-7-phenylfuro[2,3-b]pyrazin-6-yl)phenyl)cyclobutanamine], the IC50 in test [1] fell in the range of 0.1 to 1 µM; in test [2], 0.1 to 1 µM; in test [3] it was 1 to 10 µM.
Turning to `Cc1n[nH]c(C)c1-c1cnc2oc(-c3ccc(C4(N)CCC4)cc3)c(-c3ccccc3)c2n1` [Example 143, 1-(4-(2-(3,5-Dimethyl-1H-pyrazol-4-yl)-7-phenylfuro[2,3-b]pyrazin-6-yl)phenyl)cyclobutanamine], the figures for the IC50 in test [1], in test [2] and in test [3] were 1 to 10 µM, 1 to 10 µM and above 10 µM, respectively.
Regarding `NC1(c2ccc(-c3oc4ncc(-c5ccn[nH]5)nc4c3-c3ccccc3)cc2)CCC1` [Example 144, 1-(4-(7-Phenyl-2-(1H-pyrazol-5-yl)furo[2,3-b]pyrazin-6-yl)phenyl)cyclobutanamine], the IC50 was 1 to 10 µM in test [1], 1 to 10 µM in test [2] and above 10 µM in test [3].
On to `NC1(c2ccc(-c3oc4ncc(CO)nc4c3-c3ccccc3)cc2)CCC1` [Example 145, (6-(4-(1-Aminocyclobutyl)phenyl)-7-phenylfuro[2,3-b]pyrazin-2-yl)methanol], for which the IC50 is 1 to 10 µM in test [1], 1 to 10 µM in test [2] and above 10 µM in test [3].
With `C#Cc1cnc2oc(-c3ccc(C4(N)CCC4)cc3)c(-c3ccccc3)c2n1` [Example 146, 1-(4-(2-Ethynyl-7-phenylfuro[2,3-b]pyrazin-6-yl)phenyl)cyclobutanamine], the IC50 in test [1] is 1 to 10 µM; in test [2], 1 to 10 µM; in test [3] it was above 10 µM.
For the molecule `NC1(c2ccc(-c3oc4ncc(-c5cnn[nH]5)nc4c3-c3ccccc3)cc2)CCC1` [Example 147, 1-(4-(7-Phenyl-2-(1H-1,2,3-triazol-5-yl)furo[2,3-b]pyrazin-6-yl)phenyl)cyclobutanamine], the results for the IC50 in test [1], in test [2] and in test [3] were 1 to 10 µM, 1 to 10 µM and above 10 µM, respectively.
Turning to `NC1(c2ccc(-c3oc4ncc(NCCO)nc4c3-c3ccccc3)cc2)CCC1` [Example 148, 2-(6-(4-(1-Aminocyclobutyl)phenyl)-7-phenylfuro[2,3-b]pyrazin-2-ylamino)ethanol], the IC50 was 0.1 to 1 µM in test [1], 1 to 10 µM in test [2] and above 10 µM in test [3].
On the same counts, the results for `Cc1cnc2oc(-c3ccc(C4(N)CCC4)cc3)c(-c3ccccc3)c2n1` [Example 149, 1-(4-(2-Methyl-7-phenylfuro[2,3-b]pyrazin-6-yl)phenyl)cyclobutanamine] are 0.1 to 1 µM, 1 to 10 µM and above 10 µM.
On the same counts, the results for `NC1(c2ccc(-c3oc4ncc(-c5cccnc5)nc4c3-c3ccccc3)cc2)CCC1` [Example 150, 1-(4-(7-Phenyl-2-(pyridin-3-yl)furo[2,3-b]pyrazin-6-yl)phenyl)cyclobutanamine, 2HCl] are 1 to 10 µM, 0.1 to 1 µM and above 10 µM.
On the same counts, the results for `CC(=O)Nc1cccc(-c2cnc3oc(-c4ccc(C5(N)CCC5)cc4)c(-c4ccccc4)c3n2)c1` [Example 151, N-(3-(6-(4-(1-Aminocyclobutyl)phenyl)-7-phenylfuro[2,3-b]pyrazin-2-yl)phenyl)acetamide, HCl] are 1 to 10 µM, 1 to 10 µM and above 10 µM.
As to `NC(=O)c1cccc(-c2cnc3oc(-c4ccc(C5(N)CCC5)cc4)c(-c4ccccc4)c3n2)c1` [Example 152, 3-(6-(4-(1-Aminocyclobutyl)phenyl)-7-phenylfuro[2,3-b]pyrazin-2-yl)benzamide, HCl], the IC50 in test [1] is 0.1 to 1 µM; in test [2] it was 1 to 10 µM; in test [3], above 10 µM.
`CSc1cnc2c(-c3ccccc3)c(-c3ccc(C4(N)CCC4)cc3)[nH]c2n1` [Example 153, 1-(4-(3-(Methylthio)-7-phenyl-5H-pyrrolo[3,2-b]pyrazin-6-yl)phenyl)cyclobutanamine]: the IC50 in test [1] was 0.1 to 1 µM; in test [2] it was 0.1 to 1 µM; in test [3] it was above 10 µM.

The values are drawn from patent publication US20120309739A1, “AKT / PKB INHIBITORS” (ALMAC DISCOVERY LIMITED, priority 2009, published 2012).
